Series [1] concerns MeV-Alaska. Description: Viral CPE inhibition. The settings on record: compared with BM-1.
In series [2] the test system is actively dividing cells. The settings on record: cited from earlier work.
In series [3] the test system is Vero cells. The series can be described thus: Cytotoxicity in Vero cells.

Structures are written as SMILES.

With `COc1ccc(-n2c(SC(C)C(=O)Nc3nc(C)cs3)nc3ccccc32)cc1` (centres unmarked) [Compound 6m], the “fold reduction of potency relative to BM-1” value in series [1] was 10 fold.

On to `COc1ccc(-n2c(SC(C)C(=O)Nc3cc(C)nn3C)nc3ccccc32)cc1` (centres unmarked) [Compound 6j], for which the “fold reduction of potency relative to BM-1” value in series [1] was 2 fold. On to `COc1ccc(-n2c(SC(C)C(=O)Nc3cc(C)no3)nc3ccccc32)cc1` (centres unmarked) [Compound 6n], for which the “fold reduction of potency relative to BM-1” value in series [1] amounted to 2 fold. Take `COc1ccc(-n2c(SC(C)C(=O)Nc3ccc(C)cc3Cl)nc3ccccc32)cc1` (centres unmarked) [Compound 6p]: the “effect on cell proliferation” value in series [2] is “cytostatic effect”. For the same compound, the “acute cytotoxicity” value in series [3] was “does not display any detectable acute cytotoxicity”.

(Values after article PMC3274751 (ACS medicinal chemistry letters, 2011).)
